pIC50: −log10 of the molar value. Structures can show the parent of a compound that is named as a salt.
Key:
Cyclin E/CDK2 = target: T1, Cyclin E/CDK2 (Homo sapiens, UniProt P24941); assay: CDK2 FlashPlate Assay (inhibition of Rb phosphorylation by Cyclin E/CDK2); type: biochemical; conditions: for pIC50: Table IA, recombinant human Cyclin E/CDK2, Rb substrate, 25 minutes room temperature
T1 construct: made in house; host or cells: insect cells

MDA-MB-435 = assay: Cell-based antiproliferative (MTT) assay, MDA-MB-435 breast carcinoma line; conditions: Homo sapiens, MDA-MB-435, 120 h; 5 days post addition of test compound; mostly one experiment, average where repeated; read-out: MDA-MB435 IC50
Method: The estrogen receptor negative epithelial breast carcinoma line (MDA-MB-435) was purchased from American Type Cell Culture Collection (ATCC; Rockville, Md.) and was grown in the medium recommended by ATCC. For analysis of the effect of the test compounds on growth of these cells, the cells were plated at 2000 cells per well in a 96-well tissue culture plate, and were incubated overnight at 37° C. with 5% CO2. The next day, the test compounds were dissolved in 100% dimethyl sulfoxide (DMSO) to yield a 10 mM stock solution. Each compound was diluted with sterile medium to 1 mM in a sufficient quantity to yield a final concentration of 120 μM. The compounds were then serially diluted in medium with 1.2% DMSO. One-fourth final volume of the diluted compounds was transferred to 96 well plates. Test compounds were assayed in duplicate. DMSO was added to a row of "control cells" such that the final concentration of DMSO in each well was 0.3%. Wells to which no cells were added served as the "blank." Wells to which no inhibitor was added served as "no inhibitor control". The plates were returned to the incubator, and 5 days post addition of test compound, were analyzed as described below. […] MTT) was added to each well to yield a final concentration of 1 mg/mL. The plates were then incubated at 37° C. for 3 hours. The plates were centrifuged at 1000 rpm for 5 minutes prior to aspiration of the MTT-containing medium. The MTT-containing medium was then removed and 100 μL 100% ethanol was added to each well to dissolve the resulting formazan metabolite. To ensure complete dissolution, plates were shaken for 15 minutes at room temperature. Absorbencies were read in a microtiter plate reader (Molecular Dynamics) at a wavelength of 570 nm with a 650 nm reference. Percent inhibition was calculated by subtracting the absorbance of the blank (no cell) wells from all wells, then subtracting the division of the average absorbance of each test duplicate by the average of the controls from 1.00. Inhibitory concentrations (IC50) were determined from the linear regression of a plot of the logarithm of the concentration versus the percent inhibition.

SW480 = assay: Cell-based antiproliferative (MTT) assay, SW480 colon carcinoma line; conditions: Homo sapiens, SW480, 96 h; 4 days post addition of test compound
Method: The estrogen receptor negative epithelial breast carcinoma line (MDA-MB-435) was purchased from American Type Cell Culture Collection (ATCC; Rockville, Md.) and was grown in the medium recommended by ATCC. For analysis of the effect of the test compounds on growth of these cells, the cells were plated at 2000 cells per well in a 96-well tissue culture plate, and were incubated overnight at 37° C. with 5% CO2. The next day, the test compounds were dissolved in 100% dimethyl sulfoxide (DMSO) to yield a 10 mM stock solution. Each compound was diluted with sterile medium to 1 mM in a sufficient quantity to yield a final concentration of 120 μM. The compounds were then serially diluted in medium with 1.2% DMSO. One-fourth final volume of the diluted compounds was transferred to 96 well plates. Test compounds were assayed in duplicate. DMSO was added to a row of "control cells" such that the final concentration of DMSO in each well was 0.3%. Wells to which no cells were added served as the "blank." Wells to which no inhibitor was added served as "no inhibitor control". The plates were returned to the incubator, and 5 days post addition of test compound, were analyzed as described below.
3-(4,5-Dimethylthiazole-2-yl)-2,5-diphenyl-2H-tetrazolium bromide (thiazolyl blue; MTT) was added to each well to yield a final concentration of 1 mg/mL. The plates were then incubated at 37° C. for 3 hours. The plates were centrifuged at 1000 rpm for 5 minutes prior to aspiration of the MTT-containing medium. The MTT-containing medium was then removed and 100 μL 100% ethanol was added to each well to dissolve the resulting formazan metabolite. To ensure complete dissolution, plates were shaken for 15 minutes at room temperature. Absorbencies were read in a microtiter plate reader (Molecular Dynamics) at a wavelength of 570 nm with a 650 nm reference. Percent inhibition was calculated by subtracting the absorbance of the blank (no cell) wells from all wells, then subtracting the division of the average absorbance of each test duplicate by the average of the controls from 1.00. Inhibitory concentrations (IC50) were determined from the linear regression of a plot of the logarithm of the concentration versus the percent inhibition.
The colon carcinoma line SW480 also was obtained from the ATCC and was tested according to the same protocol provided above with the following modification: cell line SW480 was plated at 1000 cells per well and analyzed at 4 days post addition of test compound.

Structure (SMILES)	pIC50 (Cyclin E/CDK2)	pIC50 (MDA-MB-435)	pIC50 (SW480)	inhibition at 1 µM (Cyclin E/CDK2; Table IB, concentration ≤1.0 μM)
CCOC(=O)C(CC#Cc1c(F)ccc2c1/C(=C/c1[nH]cnc1C)C(=O)N2)NC(C)=O (racemic) [AAA, rac-(Z)-2-(Acetylamino)-5-[5-fluoro-2,3,dihydro-3-[(4-methyl-1H-imidazol-5-yl)methylene]-2-oxo-1H-indol-4-yl]-4-pentynoic acid ethyl ester]	> 5.40	> 5.46	–	–
CCC(O)C#Cc1c(F)ccc2c1/C(=C/c1[nH]cnc1C)C(=O)N2 (racemic) [OO, rac-(Z)-1,3-Dihydro-5-fluoro-4-(3-hydroxy-1-pentynyl)-3-[(4-methyl-1H-imidazol-5-yl)methylene]-2H-indol-2-one]	> 5.40	> 5.46	> 6.00	–
CCC(O)C#Cc1c([N+](=O)[O-])ccc2c1/C(=C/c1[nH]cnc1C)C(=O)N2 (racemic) [PP, rac-(Z)-1,3-Dihydro-4-(3-hydroxy-1-pentynyl)-3-[(4-methyl-1H-imidazol-5-yl)methylene]-5-nitro-2H-indol-2-one]	> 5.40	> 5.46	> 6.00	–
CCC(N)(C#Cc1c(F)ccc2c1/C(=C/c1[nH]cnc1C)C(=O)N2)CC [CCC, (Z)-4-[3-Amino-3-ethyl-1-pentynyl]-1,3-dihydro-5-fluoro-3-[(4-methyl-1H-imidazol-5-yl)methylene]-2H-indol-2-one]	–	–	> 6.00	–
CCN(CC)CC#Cc1c(F)ccc2c1/C(=C/c1[nH]cnc1C)C(=O)N2 [Compound BBB, (Z)-4-[3-(N,N-Diethylamino)-1-propynyl]-1,3-dihydro-5-fluoro-3-[(4-methyl-1H-imidazol-5-yl)methylene]-2H-indol-2-one]	> 5.40	> 5.46	–	–
Cc1nc[nH]c1/C=C1\C(=O)Nc2ccc(F)c(C#CCO)c21 [QQ, (Z)-1,3-Dihydro-5-fluoro-4-(3-hydroxy-1-propynyl)-3-[(4-methyl-1H-imidazol-5-yl)methylene]-2H-indol-2-one, trifluoroacetate salt]	> 5.40	> 5.46	–	–

Next, values leading:

pIC50 (Cyclin E/CDK2)	pIC50 (MDA-MB-435)	pIC50 (SW480)	inhibition at 1 µM (Cyclin E/CDK2; Table IB, concentration ≤1.0 μM)	Structure (SMILES)
> 5.40	> 5.46	–	–	Cc1nc[nH]c1/C=C1\C(=O)Nc2ccc(F)c(C#CCC(C)O)c21 (racemic) [TT, rac-(Z)-1,3-Dihydro-5-fluoro-4-(4-hydroxy-1-pentynyl)-3-[(4-methyl-1H-imidazol-5-yl)methylene]-2H-indol-2-one, trifluoroacetate salt]
> 5.40	> 5.46	> 6.00	–	CNCC#Cc1c(F)ccc2c1/C(=C/c1[nH]cnc1C)C(=O)N2 [RR, (Z)-1,3-Dihydro-5-fluoro-4-[3-(N-methylamino)-1-propynyl]-3-[(4-methyl-1H-imidazol-5-yl)methylene]-2H-indol-2-one]
> 5.40	> 5.46	–	–	Cc1nc[nH]c1/C=C1\C(=O)Nc2ccc(F)c(C#CCN(C)C)c21 [UU, (Z)-1,3-Dihydro-4-[3-(N,N-dimethylamino)-1-propynyl]-5-fluoro-3-[(4-methyl-1H-imidazol-5-yl)methylene]-2H-indol-2-one]
> 5.40	> 5.46	–	–	Cc1nc[nH]c1/C=C1\C(=O)Nc2ccc(F)c(C#CC(C)(C)N)c21 [VV, (Z)-4-[3-Amino-3-methyl-1-butynyl]-1,3-dihydro-5-fluoro-3-[(4-methyl-1H-imidazol-5-yl)methylene]-2H-indol-2-one]
> 5.40	> 5.46	–	–	Cc1nc[nH]c1/C=C1\C(=O)Nc2ccc(F)c(C#CCOC(N)=O)c21 [WW, (Z)-Carbamic acid 3-[2,3-dihydro-3-[(4-methyl-1H-imidazol-5-yl)methylene]-5-fluoro-2-oxo-1H-indol-4-yl]-2-propynyl ester]
> 5.40	> 5.46	–	–	Cc1nc[nH]c1/C=C1\C(=O)Nc2ccc(F)c(C#CCN3CCOCC3)c21 [XX, (Z)-1,3-Dihydro-5-fluoro-3-[(4-methyl-1H-imidazol-5-yl)methylene]-4-[3-(4-morpholinyl)-1-propynyl]-2H-indol-2-one]
–	> 5.46	–	> 90%	COC(=O)NCC#Cc1c(F)ccc2c1/C(=C/c1[nH]cnc1C)C(=O)N2 [YY, (Z)-[3-[2,3-Dihydro-5-fluoro-3-[(4-methyl-1H-imidazol-5-yl)methylene]-2-oxo-1H-indol-4-yl]-2-propynyl]carbamic acid methyl ester]

Reference: patent publication US6130239A, “4-Alkenyl- and 4-alkynyloxindoles” (Hoffmann-La Roche Inc., priority 1999, dated 2000)
